Experimental data taken from PubChem BioAssay AID256 (DTP/NCI, 2004).
Values joined by “and” are separate entries in the source; they are usually repeats but may differ in a detail not shown here. Equal entries are not always repeated. Inconclusive results and toxic doses are left out. The calls were made as follows: active = survival T/C of 150% or more; inactive = T/C below 125% in these data.

System: CD2F1 mice, L1210 leukemia ip, survival T/C
Experiment: NCI In Vivo Anticancer Drug Screen. Data for tumor model L1210 Leukemia (intraperitoneal) in CD2F1 (CDF1) mice
Conditions: endpoint: mean survival time, higher = longer survival
Outline: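 Each value reflects a quotient of treated over vehicle control outcomes in mice with a transplanted tumor.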

[1] = dose: 100.0 mg/kg/injection, schedule: Q01DX001 (ip), vehicle: saline with Tween-80
[2] = dose: 100.0 mg/kg/injection, schedule: Q04DX003 (ip), vehicle: saline with Tween-80
[3] = dose: 200.0 mg/kg/injection, schedule: Q04DX003 (ip), vehicle: saline with Tween-80
[4] = dose: 400.0 mg/kg/injection, schedule: Q04DX003 (ip), vehicle: saline with Tween-80
[5] = dose: 100.0 mg/kg/injection, schedule: Q01DX009 (ip), vehicle: saline with Tween-80
[6] = dose: 200.0 mg/kg/injection, schedule: Q01DX009 (ip), vehicle: saline with Tween-80
[7] = dose: 400.0 mg/kg/injection, schedule: Q01DX009 (ip), vehicle: saline with Tween-80

Measured: T/C

Cc1cccc(Nc2c3ccccc3nc3ccccc23)c1
inactive: [1] 100 % of control

CC(CCCC1SCC2NC(=O)NC21)C(=O)O (centres undefined)
inactive: [2] 98 % of control | [3] 98 % of control | [4] 98 % of control

Cc1cc2nc3c4ccccc4n(C)c3nc2cc1C
inactive: dose: 50.0 mg/kg/injection, schedule: Q01DX009 (sc), vehicle: Klucel (hydroxypropylcellulose) (HPC) 101 % of control | dose: 100.0 mg/kg/injection, schedule: Q01DX009 (sc), vehicle: Klucel (hydroxypropylcellulose) (HPC) 104 % of control | dose: 200.0 mg/kg/injection, schedule: Q01DX009 (sc), vehicle: Klucel (hydroxypropylcellulose) (HPC) 104 % of control

COc1c2c(c(OC)c3c1C(=O)c1ccccc1C3=O)CC=CC2
inactive: dose: 12.5 mg/kg/injection, schedule: Q01DX009 (ip), vehicle: other 105 % of control | dose: 25.0 mg/kg/injection, schedule: Q01DX009 (ip), vehicle: other 100 % of control | dose: 44.0 mg/kg/injection, schedule: Q01DX009 (ip), vehicle: other 92 % of control | dose: 50.0 mg/kg/injection, schedule: Q01DX009 (ip), vehicle: other 96 % of control | dose: 66.0 mg/kg/injection, schedule: Q01DX009 (ip), vehicle: other 90 % of control | dose: 100.0 mg/kg/injection, schedule: Q01DX009 (ip), vehicle: other 121 % of control and 90 % of control | dose: 200.0 mg/kg/injection, schedule: Q01DX009 (ip), vehicle: other 105 % of control

O=C(O)c1ccccc1S(=O)(=O)c1ccccc1
inactive: [2] 93 % of control | [3] 88 % of control | [4] 95 % of control

CNC(C)C(O)c1ccc(O)cc1 (centres undefined)
inactive: dose: 50.0 mg/kg/injection, schedule: Q01DX001 (ip), vehicle: carboxymethylcellulose (CMC) 112 % of control | dose: 100.0 mg/kg/injection, schedule: Q01DX001 (ip), vehicle: carboxymethylcellulose (CMC) 108 % of control | dose: 200.0 mg/kg/injection, schedule: Q01DX001 (ip), vehicle: carboxymethylcellulose (CMC) 108 % of control | dose: 400.0 mg/kg/injection, schedule: Q01DX001 (ip), vehicle: carboxymethylcellulose (CMC) 104 % of control

Cn1c(=O)[nH]c2c(c1=O)CCO2
inactive: dose: 100.0 mg/kg/injection, schedule: Q01DX001 (ip), vehicle: saline 103 % of control | dose: 200.0 mg/kg/injection, schedule: Q01DX001 (ip), vehicle: saline 97 % of control | dose: 400.0 mg/kg/injection, schedule: Q01DX001 (ip), vehicle: saline 100 % of control

c1ccc2c(c1)C1c3ccccc3C2c2ccccc21
inactive: [2] 95 % of control | [3] 100 % of control | [4] 94 % of control

NC(=S)Nc1ccc([N+](=O)[O-])cc1
inactive: dose: 25.0 mg/kg/injection, schedule: Q04DX003 (ip), vehicle: other 96 % of control | dose: 50.0 mg/kg/injection, schedule: Q04DX003 (ip), vehicle: other 91 % of control | dose: 100.0 mg/kg/injection, schedule: Q04DX003 (ip), vehicle: other 88 % of control and 95 % of control

c1cnc2ncncc2n1
inactive: dose: 12.5 mg/kg/injection, schedule: Q01DX009 (ip), vehicle: saline with Tween-80 94 % of control and 102 % of control | dose: 25.0 mg/kg/injection, schedule: Q01DX009 (ip), vehicle: saline with Tween-80 94 % of control and 102 % of control | dose: 50.0 mg/kg/injection, schedule: Q01DX009 (ip), vehicle: saline with Tween-80 105 % of control and 106 % of control | [5] 94 % of control and 104 % of control | [6] 96 % of control and 110 % of control

O=C(CC(=O)c1ccccc1)c1ccccc1.O=C(CC(=O)c1ccccc1)c1ccccc1.[Cl][Sn][Cl]
inactive: [2] 90 % of control | [3] 94 % of control

CCO/N=C(\C)C(N)=O
inactive: [5] 101 % of control | [6] 108 % of control | [7] 95 % of control

[N-]=[N+]=CC(=O)NCC(=O)NNC(=O)c1ccccc1
inactive: [5] 105 % of control | [2] 96 % of control | [6] 107 % of control | [3] 104 % of control | [7] 108 % of control | [4] 105 % of control

[N-]=[N+]=c1c(=O)c2ccccc2c1=O
inactive: [1] 96 % of control | dose: 200.0 mg/kg/injection, schedule: Q01DX001 (ip), vehicle: saline with Tween-80 94 % of control | dose: 400.0 mg/kg/injection, schedule: Q01DX001 (ip), vehicle: saline with Tween-80 104 % of control
